In patent US20250034165A1, “COMPOUND CONTAINING CYCLOALKYL OR HALOALKYL” (CHIA TAI TIANQING PHARMACEUTICAL GROUP CO., LTD., priority 2021, published 2025):
Read-outs that look alike come from different tables or passages of the source.

What was measured:
[1] = test system: BAF3-EGFR (del19/T790M/C797S) cells; assay: Inhibition of proliferation of BAF3-EGFR (Del19/T790M/C797S) cells, CCK-8; type: cell-based; conditions: 72 h, read-out: BAF3(EGFR T790M Del19 C797S) cell inhibitory activity IC50
Outline: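 Cells seeded at 1.0×10^5 cells/mL in RPMI + 10% FBS, cultured overnight at 37° C, 5% CO2, then compound added in duplicate wells, with untreated cells as negative control. Inhibition rate calculated against negative-control and blank means. IC50 obtained from four-parameter fit of inhibition versus log concentration.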

[2] = test system: PC-9 EGFR-Del19-T790M-C797S cells; assay: Inhibition of proliferation of PC-9-EGFR (Del19 T790M C797S) cells, CCK-8; type: cell-based; conditions: 72 h, read-out: PC-9-EGFR (Del19 T790M C797S) cell inhibitory activity IC50
Outline: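 Cells seeded at 2×10^4 cells/mL were treated 72 h with compound at 1000 nM-0.06 nM final, in replicate wells. CCK-8 absorbance at 450 nm after 2 h gave inhibition rate relative to negative control and blank. IC50 from four-parameter fit against log concentration.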

[3] = In vivo pharmacokinetics in ICR mice; conditions: for MRT last: read-out: MRT(0-t); for half-life: read-out: T½ (converted); for bioavailability: 10 mg/kg
Outline: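 ICR mice (18–20 g, 9 per group, fasted 12 h) received 10 mg/kg of compound intragastrically. Orbital blood was taken from 0 min to 24 h and EDTA-K2 plasma was prepared. Plasma was precipitated with acetonitrile containing diazepam as internal standard and analysed by LC/MS/MS.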

[4] = mouse, plasma, 1 mg/kg, IV, read-out: AUC(0-t)
[5] = mouse, plasma, PO, 10 mg/kg intragastric
[6] = mouse, plasma, PO, 10 mg/kg intragastric, read-out: AUC(0-t)
[7] = mouse, plasma, PO, 10 mg/kg intragastric, read-out: Cmax
[8] = mouse, plasma, PO, 10 mg/kg intragastric, read-out: Tmax

Row | SMILES | IC50 ([1]; Ba/F3 EGFR-Del19/T790M/C797S) [nM] | IC50 [2] [nM] | CLz ([3]; IV) [mL/min/kg] | AUC(0-inf) ([3]; mouse, plasma, 1 mg/kg, IV) [ng·h/mL] | AUC(0-t) [3, 4] [ng·h/mL] | MRT last ([3]; mouse, plasma, 1 mg/kg, IV) [h] | half-life ([3]; mouse, plasma, 1 mg/kg, IV) [h] | bioavailability ([3]; mouse, plasma, PO vs IV) [%] | AUC(0-inf) [3, 5] [ng·h/mL] | AUC(0-t) [3, 6] [ng·h/mL] | Cmax [3, 7] [ng/mL] | MRT last [3, 5] [h] | Tmax [3, 8] [h] | half-life [3, 5] [h] | IC50 [1] [nM] | other results
1 | Cc1cc2cc(n1)-c1cnn(C)c1OCCC[C@@H](C1CC1)CN1/C(=N/C2=O)Nc2cc(N[C@H]3CC[C@H](N(C)C)CC3)ccc21 [Example 25] |  | < 50 |  |  |  |  |  |  |  |  |  |  |  |  | < 1 | 
2 | Cc1cc2cc(n1)-c1cnn(C)c1OCCC[C@@H](C1CC1)CN1/C(=N/C2=O)Nc2cc(NC3(C)COC3)ccc21 [Example 29] | < 1 | < 50 | 19.7 | 850 | 845 | 1.1 | 1.65 | 42.9 | 3640 | 3620 | 553 | 5.99 | 0.5 | 3.06 |  | 
3 | Cc1cc2cc(n1)-c1cnn(C)c1OCCC[C@@H](C1CC1)CN1/C(=N/C2=O)Nc2cc(N[C@H](C)C3COC3)ccc21 [Example 39] |  | < 50 | 63.5 |  |  |  |  |  |  |  |  |  |  |  | < 1 | AUC(0-t) ([3]; IV): 261 ng·h/mL; AUC(0-∞) ([3]; IV): 262 ng·h/mL; MRT(0-t) ([3]; IV): 0.61 h; T½ ([3]; IV): 1.74 h; F (%) ([3]; PO vs IV): 118.35%; AUC(0-t) ([3]; PO, 10 mg/kg intragastric): 3093 ng·h/mL; AUC(0-∞) ([3]; PO, 10 mg/kg intragastric): 3096 ng·h/mL; Cmax ([3]; PO, 10 mg/kg intragastric): 488 ng/mL; MRT(0-t) ([3]; PO, 10 mg/kg intragastric): 3.84 h; Tmax ([3]; PO, 10 mg/kg intragastric): 0.50 h; T½ ([3]; PO, 10 mg/kg intragastric): 2.33 h

Now from value to molecule, other results behind:

Row | IC50 ([1]; Ba/F3 EGFR-Del19/T790M/C797S) [nM] | IC50 [2] [nM] | CLz ([3]; IV) [mL/min/kg] | AUC(0-inf) ([3]; mouse, plasma, 1 mg/kg, IV) [ng·h/mL] | AUC(0-t) [3, 4] [ng·h/mL] | MRT last ([3]; mouse, plasma, 1 mg/kg, IV) [h] | half-life ([3]; mouse, plasma, 1 mg/kg, IV) [h] | bioavailability ([3]; mouse, plasma, PO vs IV) [%] | AUC(0-inf) [3, 5] [ng·h/mL] | AUC(0-t) [3, 6] [ng·h/mL] | Cmax [3, 7] [ng/mL] | MRT last [3, 5] [h] | Tmax [3, 8] [h] | half-life [3, 5] [h] | IC50 [1] [nM] | SMILES | other results
4 | < 1 | < 50 | 48.8 | 341 | 336 | 3.96 | 4.64 | 27.9 | 965 | 938 | 74.5 | 7.72 | 6 | 4.29 |  | Cc1cc2cc(n1)-c1cnn(C)c1OCCC[C@@H](C1CC1)CN1/C(=N/C2=O)Nc2ccc(NCCN(C)C)cc21 [Example 28] | 
5 |  | < 50 |  |  |  |  |  |  |  |  |  |  |  |  | < 1 | Cc1cc2cc(n1)-c1cnn(C)c1OCCC[C@@H](C1CC1)CN1/C(=N/C2=O)Nc2cc(N[C@H]3CC[C@@H](N(C)C)CC3)ccc21 [Example 26] | 
